ChEMBL document CHEMBL3885881, “DrugMatrix”

Species: Rattus norvegicus
Test: DrugMatrix - Regimen: Daily Repeat
Assay type: toxicity, organism-based, Sprague-Dawley
Parameters: regimen Daily Repeat, gender Male, age 6-8 weeks
Details: in vivo, iv, […], vehicle 100 % SALINE; for ALANINE AMINOTRANSFERASE / ALBUMIN / ALKALINE PHOSPHATASE / ASPARTATE AMINOTRANSFERASE / BLOOD UREA NITROGEN / CARBON DIOXIDE / CHLORIDE / CHOLESTEROL / CREATINE PHOSPHOKINASE / CREATININE / GLUCOSE / LACTATE DEHYDROGENASE / LIPASE / PHOSPHORUS / POTASSIUM / SODIUM / TOTAL BILIRUBIN / TOTAL PROTEIN / URIC ACID: tissue Plasma; for ABSOLUTE BASOPHIL / ABSOLUTE EOSINOPHIL / ABSOLUTE LYMPHOCYTE / ABSOLUTE MONOCYTE / ABSOLUTE SEGMENTED NEUTROPHIL / BASOPHIL / EOSINOPHIL / ERYTHROCYTE COUNT / HEMATOCRIT / HEMOGLOBIN / LEUKOCYTE COUNT / LYMPHOCYTE / MEAN CORPUSCULAR HEMOGLOBIN / MEAN CORPUSCULAR HEMOGLOBIN CONCENTRATION / MEAN CORPUSCULAR VOLUME / MONOCYTE / NEUTROPHIL / NUCLEATED RED BLOOD CELLS / PLATELET COUNT: tissue Blood
[1] = 72 h, dose 0.24 mg/Kg, dose level Low, time 3 day
[2] = 72 h, dose 2.5 mg/Kg, dose level High, time 3 day
[3] = 120 h, dose 0.24 mg/Kg, dose level Low, time 5 day
[4] = 120 h, dose 2.5 mg/Kg, dose level High, time 5 day

SMILES: CC[C@@]1(O)C(=O)OCc2c1cc1n(c2=O)Cc2cc3ccccc3nc2-1 [CAMPTOTHECIN]
- ALANINE AMINOTRANSFERASE [1]: 60 u/L
- ALBUMIN [1]: 4.3 G/DL
- ALKALINE PHOSPHATASE [1]: 408 u/L
- ASPARTATE AMINOTRANSFERASE [1]: 104.67 u/L
- BLOOD UREA NITROGEN [1]: 12.67 mg/dL
- CARBON DIOXIDE [1]: 33.33 mmol/L
- CHLORIDE [1]: 101.33 MEQ/L
- CHOLESTEROL [1]: 75 mg/dL
- CREATINE PHOSPHOKINASE [1]: 727.67 u/L
- CREATININE [1]: 0.15 mg/dL
- GLUCOSE [1]: 138.33 mg/dL
- LACTATE DEHYDROGENASE [1]: 388 u/L
- LIPASE [1]: 11 u/L
- PHOSPHORUS [1]: 11.93 mg/dL
- POTASSIUM [1]: 6.3 MEQ/L
- SODIUM [1]: 145.33 MEQ/L
- TOTAL BILIRUBIN [1]: 0.17 mg/dL
- TOTAL PROTEIN [1]: 5.93 G/DL
- URIC ACID [1]: 1.33 mg/dL
- ALANINE AMINOTRANSFERASE [2]: 37.33 u/L
- ALBUMIN [2]: 4.2 G/DL
- ALKALINE PHOSPHATASE [2]: 430.33 u/L
- ASPARTATE AMINOTRANSFERASE [2]: 79.33 u/L
- BLOOD UREA NITROGEN [2]: 13 mg/dL
- CARBON DIOXIDE [2]: 33 mmol/L
- CHLORIDE [2]: 101.33 MEQ/L
- CHOLESTEROL [2]: 73.67 mg/dL
- CREATINE PHOSPHOKINASE [2]: 318.33 u/L
- CREATININE [2]: 0.16 mg/dL
- GLUCOSE [2]: 153.33 mg/dL
- LACTATE DEHYDROGENASE [2]: 136.33 u/L
- LIPASE [2]: 10.33 u/L
- PHOSPHORUS [2]: 10.83 mg/dL
- POTASSIUM [2]: 5.76 MEQ/L
- SODIUM [2]: 142.73 MEQ/L
- TOTAL BILIRUBIN [2]: 0.17 mg/dL
- TOTAL PROTEIN [2]: 6.1 G/DL
- URIC ACID [2]: 1.63 mg/dL
- ABSOLUTE BASOPHIL [3]: 0 CELLS/uL
- ABSOLUTE EOSINOPHIL [3]: 45.33 CELLS/uL
- ABSOLUTE LYMPHOCYTE [3]: 11856.67 CELLS/uL
- ABSOLUTE MONOCYTE [3]: 131.67 CELLS/uL
- ABSOLUTE SEGMENTED NEUTROPHIL [3]: 1233 CELLS/uL
- BASOPHIL [3]: 0%
- EOSINOPHIL [3]: 0.33%
- ERYTHROCYTE COUNT [3]: 5.71 x10E6/uL
- HEMATOCRIT [3]: 35.9%
- HEMOGLOBIN [3]: 14.03 G/DL
- LEUKOCYTE COUNT [3]: 13.27 x10E3/uL
- LYMPHOCYTE [3]: 89.33%
- MEAN CORPUSCULAR HEMOGLOBIN [3]: 24.57 pg
- MEAN CORPUSCULAR HEMOGLOBIN CONCENTRATION [3]: 39.07 G/DL
- MEAN CORPUSCULAR VOLUME [3]: 62.87 fL
- MONOCYTE [3]: 1%
- NEUTROPHIL [3]: 9.33%
- NUCLEATED RED BLOOD CELLS [3]: 0 /100WBC
- PLATELET COUNT [3]: 1215 x10E3/uL
- ABSOLUTE BASOPHIL [4]: 0 CELLS/uL
- ABSOLUTE EOSINOPHIL [4]: 0 CELLS/uL
- ABSOLUTE LYMPHOCYTE [4]: 7405.33 CELLS/uL
- ABSOLUTE MONOCYTE [4]: 102.67 CELLS/uL
- ABSOLUTE SEGMENTED NEUTROPHIL [4]: 225.33 CELLS/uL
- BASOPHIL [4]: 0%
- EOSINOPHIL [4]: 0%
- ERYTHROCYTE COUNT [4]: 5.35 x10E6/uL
- HEMATOCRIT [4]: 31.67%
- HEMOGLOBIN [4]: 12.13 G/DL
- LEUKOCYTE COUNT [4]: 7.73 x10E3/uL
- LYMPHOCYTE [4]: 95.67%
- MEAN CORPUSCULAR HEMOGLOBIN [4]: 22.77 pg
- MEAN CORPUSCULAR HEMOGLOBIN CONCENTRATION [4]: 38.33 G/DL
- MEAN CORPUSCULAR VOLUME [4]: 59.3 fL
- MONOCYTE [4]: 1.33%
- NEUTROPHIL [4]: 3%
- NUCLEATED RED BLOOD CELLS [4]: 0 /100WBC
- PLATELET COUNT [4]: 1318.33 x10E3/uL
- ALANINE AMINOTRANSFERASE [3]: 43.33 u/L
- ALBUMIN [3]: 4.03 G/DL
- ALKALINE PHOSPHATASE [3]: 352 u/L
- ASPARTATE AMINOTRANSFERASE [3]: 70 u/L
- BLOOD UREA NITROGEN [3]: 14.67 mg/dL
- CARBON DIOXIDE [3]: 29.33 mmol/L
- CHLORIDE [3]: 102 MEQ/L
- CHOLESTEROL [3]: 64.33 mg/dL
- CREATINE PHOSPHOKINASE [3]: 241.67 u/L
- CREATININE [3]: 0.18 mg/dL
- GLUCOSE [3]: 201.67 mg/dL
- LACTATE DEHYDROGENASE [3]: 147.33 u/L
- LIPASE [3]: 10.33 u/L
- PHOSPHORUS [3]: 11.03 mg/dL
- POTASSIUM [3]: 5.31 MEQ/L
- SODIUM [3]: 141.3 MEQ/L
- TOTAL BILIRUBIN [3]: 0.2 mg/dL
- TOTAL PROTEIN [3]: 5.93 G/DL
- URIC ACID [3]: 1.33 mg/dL
- ALANINE AMINOTRANSFERASE [4]: 42.67 u/L
- ALBUMIN [4]: 4.03 G/DL
- ALKALINE PHOSPHATASE [4]: 247 u/L
- ASPARTATE AMINOTRANSFERASE [4]: 101 u/L
- BLOOD UREA NITROGEN [4]: 17 mg/dL
- CARBON DIOXIDE [4]: 22.33 mmol/L
- CHLORIDE [4]: 103.33 MEQ/L
- CHOLESTEROL [4]: 56 mg/dL
- CREATINE PHOSPHOKINASE [4]: 674.67 u/L
- CREATININE [4]: 0.2 mg/dL
- GLUCOSE [4]: 184 mg/dL
- LACTATE DEHYDROGENASE [4]: 581 u/L
- LIPASE [4]: 10.33 u/L
- PHOSPHORUS [4]: 12.4 mg/dL
- POTASSIUM [4]: 6.08 MEQ/L
- SODIUM [4]: 142.1 MEQ/L
- TOTAL BILIRUBIN [4]: 0.13 mg/dL
- TOTAL PROTEIN [4]: 6.03 G/DL
- URIC ACID [4]: 1.8 mg/dL
